{"source": "patent US5264423A", "about": "“Inhibitors for replication of retroviruses and for the expression of oncogene products” (The United States of America as represented by the …, priority 1992, dated 1993)", "key": {"[1]": {"test_system": "ATH8 cells (printed AT[18)", "assay": "Cell uptake of 35S-phosphorothioate end-labelled oligomer, ATH8 cells", "assay_type": "in vitro ADME", "settings": "within several minutes", "excerpt": "(§1) Phosphatase-resistant 35S-phosphorothioate end-labelled S-dC28 was employed to investigate the permeability of target cells."}, "[2]": {"test_system": "HIV (HTLV-IIIB) in ATH8 cells", "assay": "HIV cytopathic effect inhibition (viable ATH8 cells, trypan blue)", "procedure": "FIGS. 1A-1D and Table 1, The target cells (2×10^5 ATH8 cells) in each tube were pretreated with the stated concentration of each oligomer for 16 hours and then incubated with Polybrene for 45 minutes. After centrifugation, each set of pelleted cells was exposed to HIV (500 virions per cell, which is a much higher dose than the minimal cytopathic dose) and incubated for one hour. Complete media (2 ml RPMI1640) supplemented with L-glutamine (4 mti), 2-mercaptoethanol ([…]), penicillin (50 unit/ml), and streptomycin (50 micrograms/ml), and containing 15% fetal calf serum and IL-2 (15% of conventional IL-2 from Advanced Biotechnologies, Inc., Silver Spring, MD, plus 20 unit/ml of recombinant IL-2 from Amgen Biochemicals, Thousand Oaks, CA) with the various concentrations of oligomers added. The number of viable cells were counted in a hemocytometer using the trypan blue exclusion method for day 7 following exposure to the virus. Filled columns represent non-virus exposed cells, and dotted columns represent virus exposed cells.\nThe HIV cytopathic effect inhibition with oligodeoxynucleotides was performed with 18 hours of pretreatment of 2×10^5 target cells (ATH8 cells) with oligos prior to exposure to HTLV-IIIB. After this pretreatment, target cells were treated with Polybrene (2 micrograms/ml) for one hour. The target cells were then, respectively, exposed to HTLV-IIIB virus (generally 500 virions per cell in this series of experiments) for one hour. The 2×10^5 cells were then diluted to 2 ml with complete media containing IL-2 and various concentrations of oligos.\nThe number of viable cells was counted in a hemocytometer using the trypan blue exclusion method on day 7 following exposure to the virus. Each set of data were obtained from simultaneously performed experiments so as to make a precise comparison among agents tested.\nThe target cells (2×10^5 ATH8 cells per tube) were preincubated with the stated concentrations of S-dC14 for 24 hours and pretreated with 2 micrograms/ml of Polybrene for 45 minutes. After centrifugation, pelleted cells were exposed to the HIV (1000 virions per cell) for one hour. The cells were incubated in 2 ml of complete media containing IL-2, and the viable cells were counted on day 13.\nOn day 13 after the exposure to the virus, viable cells were counted by the trypan blue dye exclusion method."}, "[3]": {"test_system": "T4 molecule in T4 cells (H9 cells)", "assay": "Specific binding of radiolabelled HIV to T4 molecule", "procedure": "(§2) The possibility that the S-ODN analogs may interfere with HIV binding to target cells was tested."}, "H9 cells": {"test_system": "H9 cells", "assay": "Cell uptake of 35S-phosphorothioate end-labelled oligomer, H9 cells", "assay_type": "in vitro ADME", "settings": "within several minutes", "excerpt": "as §1"}, "[4]": {"test_system": "snake venom (SV) phosphodiesterase", "assay": "Nuclease susceptibility, snake venom phosphodiesterase", "assay_type": "in vitro ADME", "excerpt": "(§3) Several oligodeoxynucleotides were studied with regard to DNase sensitivity, cf. Table 5. These include cytidine homopolymers, ODN-4 (an anti-message 28-mer complementary to the 3' region of the art/trs region of HIV BH10 clone), and myc-1 (a 15-mer complementary to the initiation codon region of the C-myc oncogene). The DNases employed were predominantly endonuclease S1, the exo- and endonuclease P1, and snake venom (SV) phosphodiesterase. The concentration of S1 nuclease was ten-fold higher (100 micromoles/ml) for reactions of oligo-dc, since both the normal and PS analog were degraded extremely slowly be this enzyme. S1 and P1 nuclease digestion proceeded at 2-45 times more slowly for the S-ODNs than for the normal oligomers, with the […] being somewhat more readily digested than the 28-mer."}, "endonuclease S1": {"test_system": "endonuclease S1", "assay": "Nuclease susceptibility, S1 nuclease", "assay_type": "in vitro ADME", "excerpt": "as §3"}, "exo- and endonuclease P1": {"test_system": "exo- and endonuclease P1", "assay": "Nuclease susceptibility, P1 nuclease", "assay_type": "in vitro ADME", "excerpt": "as §3"}, "[5]": {"test_system": "HIV p24 gag protein in chronically HIV-infected H9 cells", "assay": "HIV gag protein expression in chronically HIV-infected H9 cells, indirect immunofluorescence", "assay_type": "cell-based", "procedure": "The percentage of cells expressing p24 gag protein of HIV was determined by indirect immunofluorescence microscopy by using anti-HIV p24 murine monoclonal antibody.\nGenerally, it has been assumed that anti-sense sequences inhibit the expression of various genes by translation arrest, i.e. that they bind to MRNA and block its translation. In order to test this possibility, gag protein synthesis was analyzed in chronically HIV-infected and -producing H9 cells by indirect immunofluorescent assay under a microscope. […] Alternatively, the level of any translation arrest could have been below the threshold of detection by indirect immunofluorescent assay under a microscope. […] Therefore, one mechanism for the antiviral effect could depend on blocking viral replication perhaps prior to, or at the stage of, pro-viral DNA synthesis."}, "Solubility": {"assay": "Solubility", "assay_type": "physicochemical", "settings": "acetate salts", "excerpt": "The phosphorothioate oligodeoxynucleotides of the present invention have suitable chemical characteristics, namely, the ability to hybridize with complementary DNA/MRNA under physiological conditions, and better solubility properties relative to methylphosphonates. Moreover, the thioesters are as soluble in biological media as the parent compounds.\nOligodeoxynucleotides with blocks of phosphorothioates at the 3' or 5' ends were synthesized by automatically changing the oxidation cycle at the required point. […] Introduction of a small amount of ammonia vapor, not aqueous ammonia, by a Pasteur PiPette solubilized all the solids. The yield determined from absorbance at lambda max was about 30%."}, "[6]": {"test_system": "T4, HLA-DR, T8, T3, or Tac antigen on the cell surface of ATH8 cells", "assay": "Cell surface antigens by fluorescent-activated cytofluorometry", "assay_type": "cell-based", "settings": "1 micromole (printed i), sixteen hours", "procedure": "as §2"}, "[7]": {"test_system": "de novo HIV DNA synthesis in ATH8 cells", "assay": "Southern blot of de novo HIV DNA synthesis", "assay_type": "cell-based", "settings": "days 4 and 7", "excerpt": "Target cells (1×10^7 ATH8 cells) were pretreated with or without S-dC28 at various concentrations for sixteen hours, then treated with Polynrene, exposed to HIV (500 virus particles per cell), resuspended, and cultured in the presence or absence of S-dC28. On days 4 and 7 following the exposure to the virus, high molecular weight DNA was extracted, digested with Asp718 (a Kpn I isoschizomer from Boehringer-tiannheim, Indianapolis, IN), and subjected to Southern blot analysis hybridized with a labelled insert of molecular clone of the env region of HTLV-III (BH10) containing a 1.3 Kb Bgl II fragment.\nFIGS. 6A-6D show the inhibitor effect of the phosphorothioate oligodeoxycytidine analog (S-dC28) on de novo HIV DNA synthesis in target cells. On days 4 and 7 following the exposure to the virus, a substantial amount of viral DNA was detected by Southern blot analysis without antiviral agents.\nOn day 4, shown in lanes A-E, and day 7, shown in lanes F-J, following exposure to the virus, high molecular weight DNA was extracted. Lanes A and F contain DNA from ATH8 cells that were exposed to the virus and not protected by S-dC28. Lanes B and G, C and H, D and I, contain DNA from ATH8 cells pretreated and cultured with 1 micromole, 5 micromoles, and 7 micromoles S-dC28, respectively. Lanes E and J contain DNA from ATH8 cells treated with 50 micromoles 2', 3'-dideoxyadenonsine, and lane K contains DNA from ATH8 cells that was not exposed to the virus."}, "HL60 cells [8]": {"test_system": "HL60 cells", "assay": "DNA synthesis (3H-thymidine incorporation) in HL60 cells", "assay_type": "cell-based", "settings": "50 uM, day 1", "procedure": "To obtain the results shown in FIG. 4, nonsense or antisense S-ODNs were added at a final concentration of 50 uM on day 0 to cells seeded at 3×10^5/ml. DNA synthesis was determined on day 1 by incubating cells with 1 uCi 3H-thymidine for 4 hours, after which time 10% trichloroacetic acid was added and acid precipitatable radioactivity was trapped on Sihatman glass fiber filters. The filters were subjected to liquid scintillation counting to determine levels of radioactivity."}, "HL60 cells [9]": {"test_system": "HL60 cells", "assay": "HL60 cell growth (cell count)", "assay_type": "cell-based"}, "[10]": {"test_system": "c-myc protein in HL60 cells", "assay": "c-myc protein reduction", "assay_type": "cell-based"}}, "note": "Entries after “also recorded” stand apart in the source; their conditions may differ.", "data": [{"substance": "(dC)n n = 28 [S-dC28]", "values": [{"measurement": "uptake (increase of radioactivity)", "setting": "[1]", "result": "Significant increases of radioactivity"}, {"measurement": "protection against the virus / antiviral activity", "setting": "[2]; 0.5 micromoles", "result": "complete protection against the virus; also recorded: complete antiviral activity; also recorded: potent antiHIV activity"}, {"measurement": "inhibition of viral replication and protection of ATH8 cells from HIV", "setting": "[2]; 3 micromoles, day 7", "result": 100, "unit": "%"}, {"measurement": "in vitro therapeutic index (ratio of cytotoxic to effective concentration)", "setting": "[2]; compared with dideoxycytidine and dideoxyadenosine", "result": "comparable in vitro index to those of dideoxycytidine and dideoxyadenosine"}, {"measurement": "anti-HIV activity (cytopathic effect)", "setting": "[2]; in words", "result": "most consistent and durable antiviral effects"}, {"measurement": "inhibition of specific binding of labelled virus to T4", "setting": "[3]", "result": "No inhibition"}, {"measurement": "uptake (increase of radioactivity)", "setting": "H9 cells", "result": "Significant increases of radioactivity"}, {"measurement": "Nuclease susceptibility, t1/2", "setting": "[4]", "result": "> 1.15741", "unit": "days"}, {"measurement": "Ratio = t1/2 PSoligo/t1/2 POoligo", "setting": "[4]", "result": "> 1400"}, {"measurement": "Ratio = t1/2 PSoligo/t1/2 POoligo", "setting": "endonuclease S1", "result": 2}, {"measurement": "Ratio = t1/2 PSoligo/t1/2 POoligo", "setting": "exo- and endonuclease P1", "result": 15}, {"measurement": "Percentage of gag positive cells", "setting": "[5]; 5 micro M, 8 hours in culture", "result": 82, "unit": "%"}, {"measurement": "Percentage of gag positive cells", "setting": "[5]; 5 micro M, 24 hours in culture", "result": 91, "unit": "%"}, {"measurement": "Percentage of gag positive cells", "setting": "[5]; 5 micro M, 72 hours in culture", "result": 85, "unit": "%"}, {"measurement": "Percentage of gag positive cells", "setting": "[5]; 5 micro M, 120 hours in culture", "result": 79, "unit": "%"}, {"measurement": "Percentage of gag positive cells", "setting": "[5]; 10 micro M, 8 hours in culture", "result": 74, "unit": "%"}, {"measurement": "Percentage of gag positive cells", "setting": "[5]; 10 micro M, 24 hours in culture", "result": 80, "unit": "%"}, {"measurement": "Percentage of gag positive cells", "setting": "[5]; 10 micro M, 72 hours in culture", "result": 71, "unit": "%"}, {"measurement": "Percentage of gag positive cells", "setting": "[5]; 10 micro M, 120 hours in culture", "result": 82, "unit": "%"}, {"measurement": "Percentage of gag positive cells", "setting": "[5]; 25 micro M, 8 hours in culture", "result": 69, "unit": "%"}, {"measurement": "Percentage of gag positive cells", "setting": "[5]; 25 micro M, 24 hours in culture", "result": 86, "unit": "%"}, {"measurement": "Percentage of gag positive cells", "setting": "[5]; 25 micro M, 72 hours in culture", "result": 75, "unit": "%"}, {"measurement": "Percentage of gag positive cells", "setting": "[5]; 25 micro M, 120 hours in culture", "result": 74, "unit": "%"}, {"measurement": "gag protein positivity", "setting": "[5]; concentrations as high as 25 micromoles, 120 hours", "result": "failed to reduce gag protein positivity; also recorded: did not inhibit gag protein positivity"}, {"measurement": "solubility in 1 M NaCl", "setting": "Solubility", "result": "extremely insoluble in 1 M NaCl"}, {"measurement": "changes in T4, HLA-DR, T8, T3, or Tac antigen", "setting": "[6]", "result": "no detectable changes"}, {"measurement": "2.7 Kb env-containing KPN I viral DNA fragment detection", "setting": "[7]; 1, 5 and 7 micromoles, lanes B-D, G-I", "result": "detected only in lanes A and F"}, {"measurement": "inhibition of de novo synthesis of viral DNA", "setting": "[7]; concentrations as low as / down to 1 micromolar", "result": "significantly inhibited the de novo synthesis of viral DNA; also recorded: complete inhibition"}]}, {"substance": "dAACGTTGAGGGGCAT [S-myc-1]", "values": [{"measurement": "inhibition of DNA synthesis (3H-thymidine incorporation)", "setting": "HL60 cells [8]", "result": "significant inhibition"}, {"measurement": "Ratio = t1/2 PSoligo/t1/2 POoligo", "setting": "[4]", "result": 443}, {"measurement": "Nuclease susceptibility, t1/2", "setting": "endonuclease S1", "result": 330, "unit": "s"}, {"measurement": "Ratio = t1/2 PSoligo/t1/2 POoligo", "setting": "endonuclease S1", "result": 9}, {"measurement": "Ratio = t1/2 PSoligo/t1/2 POoligo", "setting": "exo- and endonuclease P1", "result": 4}, {"measurement": "concentration relative to that required for the normal oligomer", "setting": "HL60 cells [9]", "result": "less than 1%"}, {"measurement": "duration of antiproliferative effects", "setting": "HL60 cells [9]", "result": "up to three days"}, {"measurement": "growth inhibition of HL60 cells at 0.1 micro M", "setting": "HL60 cells [9]; 0.1 micro M", "result": "effective"}, {"measurement": "effect on HL60 cell proliferation", "setting": "HL60 cells [9]; in words", "result": "significant inhibition of cell proliferation"}, {"measurement": "reduction of c-myc protein", "setting": "[10]", "result": "reduction of c-myc protein"}]}]}
